Data as given in PubChem BioAssay AID1996.
In brackets after ≈: the same amount, converted by molar mass.

Settings: buffer; pH 7.4; 200.0 µM

SMILES | solubility kinetic [µg/mL]
COc1ccccc1N1CCN(C(=O)c2ccco2)CC1 | > 42.9
CN1C(=O)C2(OCC(CO)([N+](=O)[O-])CO2)c2ccccc21 (stereo not given) | > 44.1
Cc1ccc(S(=O)(=O)NCCCC(=O)N2CCC(C)CC2)cc1 | > 50.8
CCOc1ccc(NC2=CC(=O)CCC2)cc1 | 29.5 (≈ 128 µM)
COc1ccccc1CNC(=O)c1cc(C(C)=O)c[nH]1 | 25.1 (≈ 92.2 µM)
O=C1Nc2ccc(S(=O)(=O)NCC3CCCO3)c3cccc1c23 (stereo not given) | > 49.9
Cc1sc(N)nc1-c1c(C)n(C)c2ccccc12 | 37.6 (≈ 146 µM)
C=CCC1Cc2c(cccc2[N+](=O)[O-])C(CC=C)N1 (stereo not given) | 30.5 (≈ 118 µM)
CCC(=O)Nc1ccc2c(c1)ncn2-c1ccccc1C | > 41.9
O=Cc1cn(-c2ccccc2)nc1-c1ccncc1 | > 37.4
Cc1cccc2c(=O)cc(C)n(CC(N)=O)c12 | > 34.5
COc1cc(NC(=O)CCN2CCN(CCO)CC2)cc(OC)c1 | 44.5 (≈ 132 µM)
COCC(C)NC(=O)c1cc2cc(OC)ccc2[nH]1 (stereo not given) | 29.7 (≈ 113 µM)
O=C(O)Cc1ccc2oc(-c3ccccn3)nc2c1 | > 38.1
O=C(Nc1ccc(NC(=O)c2cccs2)cc1)c1cccs1 | 0.9 (≈ 2.74 µM)
Cc1nc2ccccc2c(=O)n1-c1ccc(Cl)c(Cl)c1 | 44 (≈ 144 µM)
CC(=O)NC(CC(=O)O)c1ccc(F)cc1 (stereo not given) | > 33.8
Clc1ccc(-c2nc(NCCCN3CCOCC3)c3ccccc3n2)cc1 | 1.4 (≈ 3.66 µM)
Cc1cc(C)c(C)c(S(=O)(=O)NC(C)C(=O)O)c1C (stereo not given) | > 42.8
COc1cc(CNC2CCCCCCC2)ccc1OCC(N)=O | > 48.1
Cc1onc(-c2ccccc2)c1C(=O)Nc1sccc1C#N | 23.5 (≈ 76 µM)
O=C(N/C(=C\c1ccccc1)C(=O)N1CCCCC1)c1ccco1 | 42.4 (≈ 131 µM)
CC(=O)c1ccc(-n2ccnc2)cc1 | > 27.9
Cc1ccc(CNc2cccnc2)cc1 | > 29.7

SMILES | solubility kinetic [µg/mL]
Cc1cccc(OCC(=O)N2CCc3ccccc3C2)c1 | 34.6 (≈ 123 µM)
Cc1ccc(NC(=S)NCCCN2CCOCC2)cc1C | > 46.1
O=c1[nH]c(=S)n(C2CC2)c(O)c1C=NCCN1CCOCC1 | > 48.7
COc1cccc(-n2cnc3sc4c(c3c2=O)CCC4)c1 | 5.9 (≈ 19.8 µM)
Cc1c(C(=O)NCc2ccccc2F)oc2ccccc12 | 1.5 (≈ 5.29 µM)
CCOCCCNC(=O)c1c[nH]c2cc(OC)ccc2c1=O | > 45.7
COc1ccccc1C(C[N+](=O)[O-])c1c[nH]c2ccccc12 (stereo not given) | 9 (≈ 30.4 µM)
COc1ccc2cc(C(=O)O)n(CC(=O)c3ccccc3)c2c1 | > 46.4
O=c1[nH]c(-[n+]2ccccc2)c(/C=N/N=C(\[O-])c2ccccc2)s1 | > 48.7
Cc1ccc2ccc(S(=O)(=O)NCc3ccco3)cc2c1 | 37 (≈ 123 µM)
O=C(NC(=S)NC(CO)Cc1ccccc1)c1ccc(F)cc1 (stereo not given) | 4.9 (≈ 14.7 µM)
Cc1ccc(OCCNC(=O)CCc2nc3sc4c(c3c(=O)[nH]2)CCCC4)cc1 | 5.6 (≈ 13.6 µM)
CCOc1ccc(/C=N/OCC(=O)Nc2ccc3c(c2)OCO3)cc1 | 5.2 (≈ 15.2 µM)
O=C(Nc1ccc(F)cc1F)c1ccc2c(c1)OCCO2 | 14 (≈ 48.1 µM)
CCOC(=O)COc1nc(C)cc(C(F)(F)F)c1C#N | 36 (≈ 125 µM)
O=C1NC(=Nc2ccccc2Br)SC1(CO)CO | > 49.7
O=C(COC(=O)C1CCC1)NCc1ccc(Cl)cc1Cl | > 47.4
COc1ccc(CC2SC(=Nc3ccc(F)cc3)NC2=O)cc1 (stereo not given) | 2.3 (≈ 6.96 µM)
Cn1c(N)c(C(=O)COC(=O)c2ccccc2C(F)(F)F)c(=O)n(C)c1=O | 6.3 (≈ 16.4 µM)
O=S(=O)(c1ccc(F)cc1)n1cnc2ccccc21 | 28.4 (≈ 103 µM)
O=C(C1CCCC1)N1CCCC(Nc2ccccc2)C1 (stereo not given) | 35.9 (≈ 132 µM)
Cc1cnc([N+](=O)[O-])n1CCOC(=O)c1cccc(F)c1 | > 44
COP(=O)(OC)C(Nc1ccc([N+](=O)[O-])cc1)c1ccccc1 (stereo not given) | > 50.4
Cc1ccc(Cl)c2sc(NC(=O)C3=COCCO3)nc12 | 1.1 (≈ 3.54 µM)

SMILES | solubility kinetic [µg/mL]
Cc1cc(C)nc(NC(=S)NC(=O)c2ccccc2)n1 | 5.8 (≈ 20.3 µM)
CC(C)CC(N(C)C)C1(c2ccc(Cl)cc2)CCC1.Cl (stereo not given) | < 0.7
COc1ccc(C2CC(=O)NC(=O)C2)cc1 | 22.3 (≈ 102 µM)
Cc1ccc2nc(N3CC(C)OC(C)C3)nc(-c3ccccc3)c2c1 (stereo not given) | 2.2 (≈ 6.6 µM)
Cc1ccc[n+](CC(=O)Nc2ccc(N(C)C)cc2)c1.[Cl-] | > 45.9
C=CCNc1nc(C(=O)OCC(=O)Nc2ccccc2C(F)(F)F)cs1 | 26.9 (≈ 69.8 µM)
CCCCC12CN3CC(C)(CN(C1)C3c1ccc([N+](=O)[O-])o1)C2=O (stereo not given) | > 50
Nc1[nH]c(=O)nc(Nc2ccccc2)c1N=O | > 34.7
O=C(NC1CC1)[C@@H]1CSC2c3ccccc3C(=O)N21 (stereo not given in full) | > 41.2
COc1cc(C2NC(=S)NC3=C2C(=O)CCC3)ccc1O (stereo not given) | > 45.7
Cc1cc(Nc2ccccc2Cl)c2ccccc2n1 | > 40.3
O=S(=O)(c1ccc(F)cc1)N1CCN(c2ccc(F)cc2)CC1 | 0.5 (≈ 1.48 µM)
CC(=O)NCc1ccc(-c2csc(-c3cccs3)n2)cc1 | 4.8 (≈ 15.3 µM)
O=C(COC(=O)c1cc(=O)[nH]c2ccccc12)NC1CCCCC1 | 4.7 (≈ 14.3 µM)
COc1ccccc1OCCNC(=O)c1ccc2c(c1)CCC2 | 42.2 (≈ 136 µM)
CC12CCC(C1)C(C)(C)C2NS(=O)(=O)c1ccc(F)cc1 (stereo not given) | 6.9 (≈ 22.2 µM)
COc1ccc(C(CNS(=O)(=O)c2ccc(NC(C)=O)c(OC)c2)N2CCCC2)cc1.Cl (stereo not given) | > 72.6
CCCCN(C)C(=O)c1cc2cc([N+](=O)[O-])cc(OC)c2oc1=O | > 50.1
O=C(Nc1ccccc1)N1CCN(CCc2ccccc2)CC1 | 41.6 (≈ 134 µM)
Cc1ccc2c(c1)[nH]c1c(=O)n(Cc3ccco3)cnc12 | 0.5 (≈ 1.79 µM)
CCN(C(=O)COC(=O)CCc1ccccc1)c1ccccc1 | 44.3 (≈ 142 µM)
Cc1ccnc(NS(=O)(=O)c2ccc3c(c2)CCO3)c1 | 10.4 (≈ 35.8 µM)
O=C(NN1C(=O)C2C3C=CC(C3)C2C1=O)C(O)c1ccccc1 (stereo not given) | > 46.8
Cn1cccc1C(=O)NCCc1ccc(Cl)cc1 | 36.1 (≈ 137 µM)

SMILES | solubility kinetic [µg/mL]
Cc1ccc(S(=O)(=O)N2CCOCC2)cc1NC(=O)COC(=O)CCc1c[nH]c2ccccc12 | 26.4 (≈ 54.4 µM)
COc1ccccc1CNC(=O)c1cc(C(=O)CC(C)C)c[nH]1 | 1.6 (≈ 5.09 µM)
CCC1(CC)NC(=O)N(Cc2nc3ccccc3s2)C1=O | > 45.5
O=C(Cc1cccc2ccccc12)Nc1ccccc1Br | < 0.7
Cc1ccc(C(O)Cn2cc([N+](=O)[O-])nc2C)cc1 (stereo not given) | > 39.2
O=C(Cc1c(F)cccc1Cl)NCCN1CCOCC1 | > 45.1
Cc1noc(C)c1C(=O)OCC(=O)Nc1ccc(N2CCOCC2)cc1 | 7.6 (≈ 21.1 µM)
O=C(CNS(=O)(=O)c1ccccc1)NCc1ccco1 | > 44.1
CCOC(=O)c1sc(SC)c2c1CCC/C2=N/OC | 0.7 (≈ 2.34 µM)
Cc1cc(C(=O)NC(C)C2CC2)c(Cl)cc1Cl (stereo not given) | 4.7 (≈ 17.3 µM)
CCN(c1ccccc1)S(=O)(=O)c1csc(C(N)=O)c1 | 44.3 (≈ 143 µM)
O=S(=O)(NCc1ccccc1)c1ccc(Br)s1 | 21.3 (≈ 64.1 µM)
O=C(Nc1ccc(F)cc1)Nc1cnccn1 | 27.9 (≈ 120 µM)
OC[C@H]1O[C@@H](n2cnc3c(Nc4ccccc4)ncnc32)[C@H](O)[C@@H]1O | > 51.5
O=C(Nc1ccc(OCc2ccccc2Cl)cc1)c1cccnc1 | 1.8 (≈ 5.31 µM)
O=C(Nc1cccc(Br)c1)c1cc(=O)c2ccccc2o1 | < 0.7
COc1ccc(CNC(=O)c2cc3ccccc3oc2=O)cc1 | < 0.7
COc1ccc(-c2ccc(CCC(=O)O)n2NC(=O)c2ccc(O)cc2)cc1 | > 57.1
CCC(=O)c1c[nH]c(C(=O)NCc2cccc(C(F)(F)F)c2)c1 | < 0.4
CC(CN1CCCCC1)NC(=O)c1cccs1 (stereo not given) | > 37.9
CCOC(=O)N1CCN(CC(=O)Nc2ccc(F)cc2F)CC1 | > 49.1
CCN(CC)CCCN(C(=O)c1ccc(F)cc1)c1nc(-c2ccc(OC)cc2)cs1 | 62.1 (≈ 141 µM)
Cc1cnc(C(=O)OCC(=O)c2ccc(F)c(F)c2)cn1 | > 43.8
Cl.O=C(O)c1ccc(Nc2ncnc3ccccc23)cc1 | > 45.3

SMILES | solubility kinetic [µg/mL]
Cc1ccccc1Cn1c(C)nc2ccc([N+](=O)[O-])cc2c1=O | 6.9 (≈ 22.3 µM)
C=CCOCCN(C)C1=NS(=O)(=O)c2ccccc21.Cl | > 47.5
COc1cccc(C(=O)NC(C)c2cccc3ccccc23)c1OC (stereo not given) | 19 (≈ 56.6 µM)
CC1CN(Cc2cnc(Cl)s2)CC(C)O1 (stereo not given) | 27.9 (≈ 113 µM)
CC(C)(C)c1ccc(OCC(O)CN2CCc3ccccc3C2)cc1.Cl (stereo not given) | 11.7
O=C(CNC(=O)OCc1ccccc1)Nc1ccc(F)cc1 | 10.3 (≈ 34.1 µM)
CO/N=C(/CN1CCCCC1)c1ccc(Cl)cc1 | 8.9 (≈ 33.4 µM)
Cn1c(=O)c2cc3c(nc2n(C)c1=O)CC(c1ccccc1)CC3=O (stereo not given) | 0.5 (≈ 1.49 µM)
CC(C)Cn1c(-c2ccc(Br)cc2)c[nH]c1=S | 5.7 (≈ 18.3 µM)
O=C(COC(=O)c1cccnc1Cl)NCCc1ccc(F)cc1 | > 50.5
COCCSc1ccccc1C(=O)Nc1ccccc1C(C)C | 48.9 (≈ 148 µM)
O=C(C(=O)N1CCCC1)c1c[nH]c2ccccc12 | > 36.3
COc1ccc2[nH]c(=O)c(C(=O)O)cc2c1 | > 32.9
COc1cc2cc(C(=O)N(C)Cc3ccccc3)[nH]c2cc1OC | 0.7 (≈ 2.16 µM)
COc1cc(C)ccc1S(=O)(=O)NC1CC(C)(C)NC(C)(C)C1 | 35 (≈ 103 µM)
Cc1cc(C)c(NC(=S)N(CCc2ccncc2)C(C)C)c(C)c1 | 48.8 (≈ 143 µM)
COC(=O)c1c(C)[nH]c(C(=O)CN2C(=O)C3CC=CCC3C2=O)c1C (stereo not given) | > 51.7
Cc1nn(CC(=O)NC2CCCCC2)c(=O)c2cccn12 | > 43.3
NS(=O)(=O)c1ccc(NC(=O)/C=C/c2cccc(Cl)c2)cc1 | 1.4 (≈ 4.16 µM)
Cc1[nH]c(=O)nc(SCc2cccc(Cl)c2)c1C#N | 12.2 (≈ 41.8 µM)
Cc1ccccc1CC(=O)NCCN1CCCCC1 | > 39.1
CN(C)C(=O)C(CCN1CCC(O)(c2ccc(Cl)cc2)CC1)(c1ccccc1)c1ccccc1.Cl | > 77
CC1CC(C)(C)NC(=S)N1CCC(=O)N1CCc2ccccc2C1 (stereo not given) | 38.8 (≈ 112 µM)
O=C(NC1=NCCS1)c1ccc(Cl)cc1 | 11.5 (≈ 47.8 µM)
